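Compound exposure: 48 hours, 5 concentrations, 96-well plates. The concentration for 50% growth inhibition is given as GI50.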 Activity calls are given as the source filed them. No stated cut-off is given here; in the data, active = GI50 up to about 1.1 µM and inactive = higher.
How the values were obtained:
Experiment in all cases: DTP human tumour cell line panel, 48 h
SF-295 = system: SF-295
T47D = system: T47D
MOLT-4 = system: MOLT-4
A549 = system: A549
TK-10 = system: TK-10
UACC-257 = system: UACC-257
OVCAR-5 = system: OVCAR-5
SN12C = system: SN12C
MDA-MB-435 = system: MDA-MB-435
CCRF-CEM = system: CCRF-CEM
DU-145 = system: DU-145
786-0 = system: 786-0
COLO 205 = system: COLO 205
SK-MEL-2 = system: SK-MEL-2
NCI/ADR-RES = system: NCI/ADR-RES
HOP-92 = system: HOP-92
SF-539 = system: SF-539
NCI-H522 = system: NCI-H522
HL-60 = system: HL-60
HCC 2998 = system: HCC 2998

Measured: GI50

CC1(C)C(CC(=O)O)CCCC1CC(=O)O (configuration not stated)
inactive: SF-295 > 100 µM | T47D > 100 µM | MOLT-4 > 100 µM | A549 > 100 µM | TK-10 > 100 µM | UACC-257 > 100 µM | OVCAR-5 > 100 µM | SN12C > 100 µM | MDA-MB-435 > 100 µM | CCRF-CEM > 100 µM | DU-145 > 100 µM | 786-0 > 100 µM | COLO 205 > 100 µM | SK-MEL-2 > 100 µM | NCI/ADR-RES > 100 µM

O=C(O)[C@H](Cc1ccccc1)NCCN1CCC[C@H]1C(=O)O
inactive: SF-295 > 100 µM | T47D > 100 µM | MOLT-4 99.8 µM | A549 > 100 µM | HOP-92 1.91 µM | OVCAR-5 > 100 µM | SN12C > 100 µM | SF-539 > 100 µM | MDA-MB-435 > 100 µM | DU-145 > 100 µM | 786-0 > 100 µM | COLO 205 37.6 µM | SK-MEL-2 > 100 µM | NCI/ADR-RES > 100 µM | NCI-H522 > 100 µM

COc1ccc(C[N+]23C(CC[C@H]2c2ccccc2)CC[C@H]3c2ccccc2)cc1 (some centres not stated)
inactive: SF-295 26.1 µM | T47D 4.56 µM | MOLT-4 21.6 µM | A549 31.3 µM | HOP-92 9.66 µM | TK-10 44.9 µM | UACC-257 5.22 µM | OVCAR-5 32.3 µM | SN12C 36.9 µM | MDA-MB-435 9.84 µM | HL-60 4.06 µM | CCRF-CEM 27.5 µM | DU-145 23.8 µM | 786-0 39.4 µM | COLO 205 5.26 µM | SK-MEL-2 18.5 µM | NCI-H522 8.73 µM

CC(C)CCC[C@@H](C)C1CCC2[C@@H]3CCC4CC(CCC=C(c5cc(Cl)c(OC(=O)c6ccccc6)c(C(=O)O)c5)c5cc(Cl)c(OC(=O)c6ccccc6)c(C(=O)O)c5)CC[C@]4(C)C3CC[C@@]21C (some centres not stated)
inactive: MOLT-4 > 100 µM | A549 > 100 µM | HOP-92 28.1 µM | TK-10 52.2 µM | UACC-257 58.2 µM | OVCAR-5 > 100 µM | SN12C > 100 µM | SF-539 > 100 µM | MDA-MB-435 72.8 µM | HL-60 > 100 µM | CCRF-CEM > 100 µM | HCC 2998 > 100 µM | DU-145 > 100 µM | 786-0 22.6 µM | COLO 205 > 100 µM | SK-MEL-2 > 100 µM | NCI/ADR-RES > 100 µM | NCI-H522 > 100 µM

N#Cc1c(-c2ccc(Cl)cc2)c(C#N)c(=O)n(NS(=O)(=O)c2ccccc2)c1-c1ccccc1
inactive: SF-295 > 25 µM | MOLT-4 > 25 µM | A549 > 25 µM | HOP-92 > 25 µM | TK-10 > 25 µM | UACC-257 > 25 µM | OVCAR-5 > 25 µM | SN12C > 25 µM | SF-539 > 25 µM | MDA-MB-435 > 25 µM | HL-60 > 25 µM | CCRF-CEM > 25 µM | HCC 2998 > 25 µM | 786-0 > 25 µM | COLO 205 > 25 µM | SK-MEL-2 > 25 µM

COc1ccc(C(C)Nc2cc(OC)c(OC)c(OC)c2)cc1 (configuration not stated)
inactive: SF-295 2.3 µM | MOLT-4 4.61 µM | A549 5.62 µM | HOP-92 1.56 µM | TK-10 > 29.7 µM | UACC-257 3.27 µM | OVCAR-5 29.5 µM | SN12C 7.71 µM | SF-539 3.1 µM | HL-60 1.94 µM | CCRF-CEM 3.29 µM | HCC 2998 10.3 µM | 786-0 6.65 µM | COLO 205 2.48 µM | SK-MEL-2 3.01 µM | NCI-H522 2.51 µM

COc1c(C)c2c(c3c1c(=O)c1ccccc1n3C)C=CC(C)(C)O2
inactive: SF-295 17.9 µM | MOLT-4 19.5 µM | A549 5.41 µM | HOP-92 31.9 µM | TK-10 48.3 µM | UACC-257 28.9 µM | OVCAR-5 29.2 µM | SN12C 30.2 µM | SF-539 19.3 µM | HL-60 9.73 µM | CCRF-CEM 21.4 µM | HCC 2998 28.4 µM | 786-0 23.4 µM | COLO 205 30.7 µM | SK-MEL-2 25 µM | NCI-H522 20.9 µM

Cn1cnc([N+](=O)[O-])c1Sc1nncc2[nH]cnc12
inactive: SF-295 > 100 µM | T47D > 100 µM | MOLT-4 > 100 µM | A549 > 100 µM | HOP-92 > 100 µM | TK-10 > 100 µM | UACC-257 > 100 µM | OVCAR-5 > 100 µM | SN12C > 100 µM | SF-539 > 100 µM | MDA-MB-435 > 100 µM | HL-60 > 100 µM | CCRF-CEM > 100 µM | HCC 2998 > 100 µM | 786-0 > 100 µM | COLO 205 > 100 µM | SK-MEL-2 > 100 µM | NCI/ADR-RES > 100 µM | NCI-H522 > 100 µM
